# ChEMBL document CHEMBL4002618, “Anticomplement triterpenoids from the roots of Ilex asprella” (2017)
# Active and inactive are the calls of the source. The rule behind the calls is not given here.
# Legend:
# [1] = tested on: Erythrocyte; test: Anticomplement activity in sheep erythrocytes assessed as concentration required for 50% hemolytic inhibition by classic pathway preincubated for 10 mins with guinea pig serum followed by erythrocyte addition measured after 30 mins by spectrophotometer; format: functional
# [2] = tested on: Erythrocyte; test: Anticomplement activity in New Zealand White rabbit erythrocytes assessed as concentration required for 50% hemolytic inhibition by alternative pathway preincubated for 10 mins with normal human serum followed by erythrocyte addition measured after 30 mins by spectrophotometer; format: functional
# [3] = tested on: Erythrocyte; test: Anticomplement activity in sheep erythrocytes assessed as inhibition of hemolysis by classical pathway by measuring hemolysis after 30 mins of compound treatment in normal human serum with C3-depleted sera relative to control; format: functional, Ovis aries; parameters: scale not given: the % may be the effect or the level left
# [4] = tested on: Erythrocyte; test: Anticomplement activity in sheep erythrocytes assessed as inhibition of hemolysis by classical pathway by measuring hemolysis after 30 mins of compound treatment in normal human serum with C4-depleted sera relative to control; format: functional, Ovis aries; parameters: scale not given: the % may be the effect or the level left
# [5] = tested on: Erythrocyte; test: Anticomplement activity in sheep erythrocytes assessed as inhibition of hemolysis by classical pathway by measuring hemolysis after 30 mins of compound treatment in normal human serum with C9-depleted sera relative to control; format: functional, Ovis aries; parameters: scale not given: the % may be the effect or the level left
# [6] = tested on: Erythrocyte; test: Anticomplement activity in sheep erythrocytes assessed as inhibition of hemolysis by classical pathway after 30 mins of compound treatment in normal human serum with C1q-depleted sera; format: functional, cell-based; settings: Ovis aries
# [7] = tested on: Erythrocyte; test: Anticomplement activity in sheep erythrocytes assessed as inhibition of hemolysis by classical pathway after 30 mins of compound treatment in normal human serum with C2-depleted sera; format: functional, cell-based; settings: Ovis aries
# [8] = tested on: Erythrocyte; test: Anticomplement activity in sheep erythrocytes assessed as inhibition of hemolysis by classical pathway after 30 mins of compound treatment in normal human serum with C5-depleted sera; format: functional, cell-based; settings: Ovis aries
Compound,Activity ([1]; Ovis aries),Activity ([2]; Oryctolagus cuniculus),Activity [1],Activity [2],further results
COC(=O)[C@H]1O[C@@H](O[C@H]2CC[C@]3(C)[C@H]4CC=C5[C@H]6[C@](C(=O)O)(CC[C@@H](C)[C@@]6(C)O)CC[C@@]5(C)[C@]4(C)CC[C@H]3C2(C)C)[C@H](O)[C@@H](O)[C@@H]1O,inactive,inactive,,,
C[C@H]1[C@H](C)CC[C@]2(C(=O)O)CC[C@]3(C)C(=CC[C@@H]4[C@@]5(C)CC[C@H](O)C(C)(C)[C@@H]5CC[C@]43C)[C@H]12 [URSOLIC ACID],,,0.278 mg/mL,0.493 mg/mL,
CC(=O)O[C@H]1CC[C@]2(C)[C@H]3CC=C4[C@@H]5[C@@H](C)[C@H](C)CC[C@]5(CO)CC[C@@]4(C)[C@]3(C)CC[C@H]2C1(C)C,,inactive,0.46 mg/mL,,
C[C@H]1[C@H](C)CC[C@]2(C(=O)O)CC[C@]3(C)C(=CC[C@@H]4[C@@]5(C)CC[C@H](O)[C@@](C)(CO)[C@@H]5CC[C@]43C)[C@H]12,,,0.161 mg/mL,0.678 mg/mL,
C=C1[C@@H](O)[C@H](O)C[C@]2(C)[C@H]3CC=C4[C@@H]5[C@@H](C)[C@H](C)CC[C@]5(C(=O)O)CC[C@@]4(C)[C@]3(C)CC[C@@H]12 [ILEKUDINOL B],,,0.123 mg/mL,0.586 mg/mL,
COC(=O)[C@]12CCC(C)(C)C[C@H]1C1=CC[C@@H]3[C@@]4(C)CC[C@H](O)C(C)(C)[C@@H]4CC[C@@]3(C)[C@]1(COC(=O)/C=C/c1ccc(O)cc1)CC2,,,0.094 mg/mL,0.444 mg/mL,Activity [3]: <18.3%; Activity [4]: <18.3%; Activity [5]: <18.3%; Activity [6]: inactive; Activity [7]: inactive; Activity [8]: inactive
C[C@@H]1CC[C@]2(C(=O)O[C@@H]3O[C@H](CO)[C@@H](O)[C@H](O)[C@H]3O)CC[C@]3(C)C(=CC[C@@H]4[C@@]5(C)CC[C@H](O[C@@H]6OC[C@@H](O)[C@H](O)[C@H]6O)C(C)(C)[C@@H]5CC[C@]43C)[C@@H]2[C@]1(C)O,inactive,inactive,,,
CC1=C2[C@H](O)C[C@]3(C)[C@H]([C@@H]4O[C@@H]4[C@]45OC(=O)[C@@]6(CCC(C)(C)C[C@H]64)CC[C@]53C)[C@@]2(C)C=C(O)C1=O,,,0.38 mg/mL,0.944 mg/mL,
C[C@H]1[C@H](C)CC[C@]2(C(=O)O)CC[C@]3(C)C(=CC[C@@H]4[C@@]5(C)C[C@H](O)[C@H](O)[C@@](C)(CO)[C@@H]5CC[C@]43C)[C@H]12,,,0.197 mg/mL,0.212 mg/mL,
C[C@@H]1CC[C@]2(C(=O)O[C@@H]3O[C@H](CO)[C@@H](O)[C@H](O)[C@H]3O)CC[C@]3(C)C(=CC[C@@H]4[C@@]5(C)CC[C@H](O[C@@H]6OC[C@H](O)[C@H](O)[C@H]6O)C(C)(C)[C@@H]5CC[C@]43C)[C@@H]2[C@]1(C)O,inactive,inactive,,,
C=C1[C@@H](O)[C@H](O)C[C@]2(C)[C@H]3C=C[C@]45OC(=O)[C@@]6(CC[C@@H](C)[C@H](C)[C@H]64)CC[C@@]5(C)[C@]3(C)CC[C@@H]12 [ILEKUDINOL A],,,0.248 mg/mL,0.658 mg/mL,
C=C1[C@@H](O)[C@H](O)C[C@]2(C)[C@H]3[C@@H]4O[C@@H]4[C@]45OC(=O)[C@@]6(CC[C@@H](C)[C@H](C)[C@H]64)CC[C@@]5(C)[C@]3(C)CC[C@@H]12 [ULMOIDOL],,,0.429 mg/mL,0.794 mg/mL,
C[C@H]1CC[C@]2(C(=O)O[C@@H]3O[C@H](CO)[C@@H](O)[C@H](O)[C@H]3O)CC[C@]3(C)C(=CC[C@@H]4[C@@]5(C)CC[C@H](O[C@@H]6OC[C@@H](O)[C@H](O)[C@H]6O)C(C)(C)[C@@H]5CC[C@]43C)[C@@H]2[C@]1(C)O,inactive,inactive,,,
C[C@@H]1CC[C@]2(C(=O)O)CC[C@]3(C)C(=CC[C@@H]4[C@@]5(C)CC[C@H](O)C(C)(C)[C@@H]5CC[C@]43C)[C@@H]2[C@]1(C)O [POMOLIC ACID],,,0.101 mg/mL,0.157 mg/mL,
COC(=O)[C@H]1O[C@@H](O[C@H]2CC[C@]3(C)[C@H]4CC=C5[C@H]6[C@](C(=O)O)(CC[C@H](C)[C@@]6(C)O)CC[C@@]5(C)[C@]4(C)CC[C@H]3C2(C)C)[C@H](O)[C@@H](O)[C@@H]1O,inactive,inactive,,,
COC(=O)[C@]12CC[C@@H](C)[C@@](C)(O)[C@H]1C1=CC[C@@H]3[C@@]4(C)CC[C@H](O)C(C)(C)[C@@H]4CC[C@@]3(C)[C@]1(COC(=O)/C=C/c1ccc(O)c(OC)c1)CC2,,,0.131 mg/mL,0.319 mg/mL,

Compound,Activity ([1]; Ovis aries),Activity ([2]; Oryctolagus cuniculus),Activity [1],Activity [2],further results
C[C@H]1CC[C@]2(C(=O)O)CC[C@]3(C)C(=CC[C@@H]4[C@@]5(C)CC[C@H](O)C(C)(C)[C@@H]5CC[C@]43C)[C@@H]2[C@]1(C)O,,,0.237 mg/mL,0.579 mg/mL,
COC(=O)[C@H]1O[C@@H](O[C@H]2CC[C@@]3(C)[C@@H](CC[C@]4(C)[C@@H]3CC=C3[C@H]5[C@](C(=O)O)(CC[C@@H](C)[C@@]5(C)O)CC[C@]34C)[C@]2(C)CO)[C@H](O)[C@@H](O)[C@@H]1O,inactive,inactive,,,
C[C@H]1[C@H](C)CC[C@@]23CC[C@]4(C)[C@@](OC2=O)([C@H]13)[C@H]1O[C@H]1[C@@H]1[C@@]2(C)CC(=O)[C@H](O)[C@@H](C)[C@@H]2[C@H](O)C[C@]14C,,,0.592 mg/mL,0.734 mg/mL,
C[C@H]1CC[C@]2(C(=O)O[C@@H]3O[C@H](CO)[C@@H](O)[C@H](O)[C@H]3O)CC[C@]3(C)C(=CC[C@@H]4[C@@]5(C)CC[C@H](O[C@@H]6OC[C@H](O)[C@H](O)[C@H]6O)C(C)(C)[C@@H]5CC[C@]43C)[C@@H]2[C@]1(C)O,inactive,inactive,,,
C[C@@H]1CC[C@]2(C(=O)O)CC[C@]3(C)C(=CC[C@@H]4[C@@]5(C)CC[C@H](O)[C@@](C)(CO)[C@@H]5CC[C@]43C)[C@@H]2[C@]1(C)O [ROTUNDIC ACID],,,0.19 mg/mL,0.341 mg/mL,
COC(=O)[C@]12CCC(C)(C)C[C@H]1C1=CC[C@@H]3[C@@]4(C)CC[C@H](O)C(C)(C)[C@@H]4CC[C@@]3(C)[C@]1(COC(=O)/C=C/c1ccc(O)c(O)c1)CC2,,,0.063 mg/mL,0.089 mg/mL,Activity [3]: <18.3%; Activity [4]: <18.3%; Activity [5]: <18.3%; Activity [6]: inactive; Activity [7]: inactive; Activity [8]: inactive
CC1=C2[C@H](O)C[C@]3(C)[C@H]([C@@H]4O[C@@H]4[C@]45OC(=O)[C@@]6(CC[C@@H](C)[C@H](C)[C@H]64)CC[C@]53C)[C@@]2(C)C=C(O)C1=O,,,0.505 mg/mL,0.774 mg/mL,
C[C@@H]1CC[C@]2(C(=O)O[C@@H]3O[C@H](CO)[C@@H](O)[C@H](O)[C@H]3O)CC[C@]3(C)C(=CC[C@@H]4[C@@]5(C)CC[C@H](O)C(C)(C)[C@@H]5CC[C@]43C)[C@@H]2[C@]1(C)O,inactive,inactive,,,
CC1(C)CC[C@]2(C(=O)O)CC[C@]3(C)C(=CC[C@@H]4[C@@]5(C)CC[C@H](O[C@@H]6OC[C@H](O)[C@H](O)[C@H]6O)C(C)(C)[C@@H]5CC[C@]43C)[C@@H]2[C@@H]1O,inactive,inactive,,,
CC(=O)O[C@H]1[C@H](O[C@H]2CC[C@]3(C)[C@H]4CC=C5[C@H]6[C@](C(=O)O[C@@H]7O[C@H](CO)[C@@H](O)[C@H](O)[C@H]7O)(CC[C@@H](C)[C@@]6(C)O)CC[C@@]5(C)[C@]4(C)CC[C@H]3C2(C)C)OC[C@H](O)[C@@H]1O,inactive,inactive,,,
C[C@@H]1CC[C@]2(C(=O)O)CC[C@]3(C)C(=CC[C@@H]4[C@@]5(C)CC[C@H](O[C@@H]6OC[C@H](O)[C@H](O)[C@H]6O)C(C)(C)[C@@H]5CC[C@]43C)[C@@H]2[C@]1(C)O,inactive,inactive,,,
C=C1CC[C@@]23CC[C@]4(C)[C@@](OC2=O)([C@@H]3[C@H]1C)[C@H]1O[C@H]1[C@@H]1[C@@]2(C)C=C(O)C(=O)C(C)=C2[C@H](O)C[C@]14C,,,0.236 mg/mL,0.656 mg/mL,
COC(=O)[C@]12CC[C@@H](C)[C@H](C)[C@H]1C1=CC[C@@H]3[C@@]4(C)CC[C@H](O)C(C)(C)[C@@H]4CC[C@@]3(C)[C@]1(COC(=O)/C=C/c1ccc(O)c(O)c1)CC2,,,0.058 mg/mL,0.08 mg/mL,Activity [3]: <18.3%; Activity [4]: <18.3%; Activity [5]: <18.3%; Activity [6]: inactive; Activity [7]: inactive; Activity [8]: inactive
COC(=O)[C@H]1O[C@@H](O[C@H]2CC[C@]3(C)[C@H]4CC=C5[C@@H]6[C@H](O)C(C)(C)CC[C@]6(C(=O)O)CC[C@@]5(C)[C@]4(C)CC[C@H]3C2(C)C)[C@H](O)[C@@H](O)[C@@H]1O,inactive,inactive,,,
C=C1[C@@H](O)[C@H](O)C[C@]2(C)[C@H]3[C@@H]4O[C@@H]4[C@]45OC(=O)[C@@]6(CCC(C)(C)C[C@H]64)CC[C@@]5(C)[C@]3(C)CC[C@@H]12,,,0.357 mg/mL,0.781 mg/mL,
